Where a name gives a salt, the structure may show the parent alone.

For this assay, the target named is T1, GPR40 (Homo sapiens, UniProt O14842).
T1 construct: expressed in transfected cells
T1 sequence (O14842 whole entry): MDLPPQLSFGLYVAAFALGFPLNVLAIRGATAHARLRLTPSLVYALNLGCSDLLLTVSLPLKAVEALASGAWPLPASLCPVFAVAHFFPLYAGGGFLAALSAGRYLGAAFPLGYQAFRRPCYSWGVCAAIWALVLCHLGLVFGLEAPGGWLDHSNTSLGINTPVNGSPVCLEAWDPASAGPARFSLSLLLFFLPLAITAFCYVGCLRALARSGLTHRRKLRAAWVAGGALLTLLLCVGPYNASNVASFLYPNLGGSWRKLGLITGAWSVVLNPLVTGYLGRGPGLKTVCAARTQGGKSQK
As to the kind of experiment: GPR40 SAR Primary Assay (Elk-1/Gal4-luc+ reporter, luciferase activity). The class given is cell-based. The settings on record: stable GPR40 Elk-1/Gal4-luc+ CHO cell line, 5 hours incubation. The procedure:
An existing stable GPR40 Elk-1/Gal4-luc^+ CHO cell line generated by electroporation and functional cloning was used. Cells were maintained in a humidified incubator at 37° C./5% CO2 in complete media containing DMEM/F12 (Gibco, #11039-021), 5% FBS (Gibco, #16140-071) and 1% Glutamine (Gibco, #25030-081). Cell maintenance passages were made at 1:40 dilution every 3-4 days. Forty eight hours prior to assay, 15e6 cells were added to 200 ml of complete media then seeded into a 1200 cm^2-cell factory and returned to a humidified incubator at 37° C./5% CO2. 20 hours prior to assay, the growth media was removed and replaced with 200 ml of serum-free DMEM/F12 to quiesce background activity. At the time of assay, cells were harvested using non-enzymatic cell dissociation solution (Sigma, #C-5914), washed and counted. The 20 hour starve media was collected and used as condition media for cell assay plating. Cells were plated at a concentration of 10,000 cells/well in a total well volume of […] in black 96-well clear bottom polystyrene plates (CoStar, #3904). Test compounds were prepared as serial dilutions in 100% DMSO, then 1 ul was delivered to each well resulting in a final concentration of 1% DMSO. The plates were then returned to a humidified incubator at 37° C./5% CO2 for 5 hours. Following the incubation, the medium was replaced with 50 ul of a 1:1 mixture of SteadyGlo™ (Promega, #E2550) and dPBS containing 1 mM CaCl2 and 1 mM MgCl2. Plates were then sealed and subjected to dark adaptation at room temperature for 10 minutes. Luciferase activity was measured on a Packard TopCount™ microplate scintillation counter using 2 seconds per well count time.
Data analysis was performed using standard methods.
The Normalization Equation used was 100*(Unknown compound response−Background response)/(Agonist Max response−Background response).
The Curve Fit Function used was y=((Vmax*x^n)/(K^n+x^n))+Y2.
A percent max response and pEC50 were recorded for each compound. Although specific pEC50 values are given, these values should be considered exemplary. Those skilled in the art will appreciate the variability in performing and recording the biological activity assays that are herein described. The compounds of the present invention provide a pEC50 of at least 5.0.
Usually EC50 stands for the concentration giving half of the maximal effect. A low value points to a more potent agent. `Cc1nc(-c2ccc(C(F)(F)F)cc2)sc1CNc1ccc([C@@H]2C[C@H]2C(=O)NCc2ccncc2)cc1` (racemic) [Example 37, Racemic-(trans)-2-{4-[({4-methyl-2-[4-(trifluoromethyl)phenyl]-1,3-thiazol-5-yl}methyl)amino]phenyl}-N-(4-pyridinylmethyl)cyclopropanecarboxamide] gave an EC50 of 0.01 µM.
With `Cc1nc(-c2ccc(C(F)(F)F)cc2)sc1CNc1ccc([C@@H]2C[C@H]2C(N)=O)cc1` (racemic) [Example 43, Racemic-(trans)-2-{4-[({4-methyl-2-[4-(trifluoromethyl)phenyl]-1,3-thiazol-5-yl}methyl)amino]phenyl}cyclopropanecarboxamide] the figure was 0.02 µM; with `Cc1nc(-c2ccc(C(F)(F)F)cc2)sc1CNc1ccc([C@@H]2C[C@H]2C(=O)NC(C)C)cc1` (racemic) [Example 45, Racemic-(trans)-N-isopropyl-2-{4-[({4-methyl-2-[4-(trifluoromethyl)phenyl]-1,3-thiazol-5-yl}methyl)amino]phenyl}cyclopropanecarboxamide], 0.01 µM; with `Cc1nc(-c2ccc(C(F)(F)F)cc2)sc1CNc1ccc([C@@H]2C[C@H]2C(=O)N(C)C)cc1` (racemic) [Example 46, Racemic-(trans)-N,N-dimethyl-2-{4-[({4-methyl-2-[4-(trifluoromethyl)phenyl]-1,3-thiazol-5-yl}methyl)amino]phenyl}cyclopropanecarboxamide], 0.0631 µM.
With `O=C(NCc1ccncc1)[C@@H]1C[C@H]1c1ccc(NCc2cccc(Oc3ccccc3)c2)cc1` (racemic) [Example 47, Racemic-(trans)-2-[4-({[3-(phenyloxy)phenyl]methyl}amino)phenyl]-N-(4-pyridinylmethyl)cyclopropanecarboxamide] the figure was 0.01 µM.
With `COc1ccc(CNC(=O)[C@@H]2C[C@H]2c2ccc(NCc3cccc(Oc4ccccc4)c3)cc2)cc1` (racemic) [Example 48, Racemic-(trans)-N-(4-methoxybenzyl)-2-{4-[(3-phenoxybenzyl)amino]phenyl}cyclopropanecarboxamide] the figure was 0.0316 µM; with `O=C(NCc1ccc(C(F)(F)F)cc1)[C@@H]1C[C@H]1c1ccc(NCc2cccc(Oc3ccccc3)c2)cc1` (racemic) [Example 49, Racemic-(trans)-2-{4-[(3-phenoxybenzyl)amino]phenyl}-N-[4-(trifluoromethyl)benzyl]cyclopropanecarboxamide], 0.0316 µM.
The compound `O=C(NCCN1CCOCC1)[C@@H]1C[C@H]1c1ccc(NCc2cccc(Oc3ccccc3)c2)cc1` (racemic) [Example 50, Racemic-(trans)-N-(2-morpholin-4-ylethyl)-2-{4-[(3-phenoxybenzyl)amino]phenyl}cyclopropanecarboxamide] had an EC50 of 0.251 µM.
In turn, `O=C(NCC(F)(F)F)[C@@H]1C[C@H]1c1ccc(NCc2cccc(Oc3ccccc3)c2)cc1` (racemic) [Example 51, Racemic-(trans)-2-{4-[(3-phenoxybenzyl)amino]phenyl}-N-(2,2,2-trifluoroethyl)cyclopropanecarboxamide] showed a 50% effective concentration (EC50) of 0.0501 µM.
With `CC(C)NC(=O)[C@@H]1C[C@H]1c1ccc(NCc2sc(-c3ccc(C(F)(F)F)cc3)nc2C(C)C)cc1` (racemic) [Example 52, Racemic-(trans)-N-isopropyl-2-{4-[({4-isopropyl-2-[4-(trifluoromethyl)phenyl]-1,3-thiazol-5-yl}methyl)amino]phenyl}cyclopropanecarboxamide] the figure was 0.0158 µM.
With `O=C(O)[C@@H]1C[C@H]1c1ccc(NCc2cccc(Oc3ccccc3)c2)cc1` (single isomer, unassigned) [Example 25] the figure was 0.631 µM; with `Cc1nc(-c2ccc(C(F)(F)F)cc2)sc1CNc1ccc([C@@H]2C[C@H]2C(=O)NCc2ccncc2)cc1` (single isomer, unassigned) [Example 38, Enantiomerically Enriched (trans)-2-{4-[({4-methyl-2-[4-(trifluoromethyl)phenyl]-1,3-thiazol-5-yl}methyl)amino]phenyl}-N-(4-pyridinylmethyl)cyclopropanecarboxamide TFA Salt], 0.00501 µM.
For the compound `Cc1nc(-c2ccc(C(F)(F)F)cc2)sc1CNc1ccc([C@@H]2C[C@H]2C(N)=O)cc1` (single isomer, unassigned) [Example 39, Enantiomerically Enriched (trans)-2-{4-[({4-methyl-2-[4-(trifluoromethyl)phenyl]-1,3-thiazol-5-yl}methyl)amino]phenyl}cyclopropanecarboxamide], the EC50 was 0.01 µM.
With `Cc1nc(-c2ccc(C(F)(F)F)cc2)sc1CNc1ccc([C@@H]2C[C@H]2C(=O)NO)cc1` (single isomer, unassigned) [Example 41, Enantiomerically Enriched (trans)-N-hydroxy-2-{4-[({4-methyl-2-[4-(trifluoromethyl)phenyl]-1,3-thiazol-5-yl}methyl)amino]phenyl}cyclopropanecarboxamide] the figure was 0.00631 µM; with `Cc1nc(-c2ccc(C(F)(F)F)cc2)sc1CNc1ccc([C@@H]2C[C@H]2C(=O)NC2CCC2)cc1` (single isomer, unassigned) [Example 42, Enantiomerically Enriched (trans)-N-cyclobutyl-2-{4-[({4-methyl-2-[4-(trifluoromethyl)phenyl]-1,3-thiazol-5-yl}methyl)amino]phenyl}cyclopropanecarboxamide], 0.00794 µM; with `O=C(O)C1CC1c1ccc(NCc2cccc(Oc3ccccc3)c2)cc1` (single isomer, unassigned; (+)) [Example 26, (+)-(Trans)-2-{4-[(3-phenoxybenzyl)amino]phenyl}cyclopropanecarboxylic Acid], 0.00398 µM.
The compound `Cc1nc(-c2ccc(C(F)(F)F)cc2)sc1CNc1ccc(C2CC2C(=O)O)cc1` (single isomer, unassigned; (+)) [Example 27, (+)-(Trans)-2-{4-[({4-methyl-2-[4-(trifluoromethyl)phenyl]-1,3-thiazol-5-yl}methyl)amino]phenyl}cyclopropanecarboxylic Acid] gave an EC50 of 0.00398 µM.
With `O=C(O)C1CC1c1ccc(NCc2cccc(Oc3ccc(Cl)c(Cl)c3)c2)cc1` (single isomer, unassigned; (+)) [Example 28a, (+)-(Trans)-2-{4-[({3-[(3,4-dichlorophenyl)oxy]phenyl}methyl)amino]phenyl}cyclopropanecarboxylic Acid Trifluoroacetate] the figure was 0.00316 µM; with `O=C(O)C1CC1c1ccc(NCc2cccc(Oc3ccccc3)c2)cc1Cl` (single isomer, unassigned; (+)) [Example 30a, (+)-(Trans)-2-[2-chloro-4-({[3-(phenyloxy)phenyl]methyl}amino)phenyl]cyclopropanecarboxylic Acid], 0.398 µM; with `O=C(O)C1CC1c1cc(F)c(NCc2cccc(Oc3ccccc3)c2)cc1F` (single isomer, unassigned; (+)) [Example 31a, (+)-(trans)-2-[2,5-difluoro-4-({[3-(phenyloxy)phenyl]methyl}amino)phenyl]cyclopropanecarboxylic Acid], 0.501 µM.
As to `CC(C)NC(=O)C1CC1c1ccc(NCc2cccc(Oc3ccccc3)c2)cc1` (single isomer, unassigned; (+)) [Example 44, (+)-(trans)-N-(1-methylethyl)-2-[4-({[3-(phenyloxy)phenyl]methyl}amino)phenyl]cyclopropanecarboxamide], the EC50 was 0.01 µM.
Take `Cc1nc(-c2ccc(C(F)(F)F)cc2)sc1CNc1ccc(C2CC2C(=O)O)cc1` (single isomer, unassigned; (-)) [Example 29, (−)-(cis)-2-{4-[({4-methyl-2-[4-(trifluoromethyl)phenyl]-1,3-thiazol-5-yl}methyl)amino]phenyl}cyclopropanecarboxylic Acid]: the EC50 was 0.316 µM.
With `O=C(O)[C@H]1C[C@@H]1c1ccc(NCc2cccc(Oc3cc(Cl)cc(Cl)c3)c2)cc1` [Example 32, (+)-(trans)-2-{4-[({3-[(3,5-dichlorophenyl)oxy]phenyl}methyl)amino]phenyl}cyclopropanecarboxylic Acid trifluoroacetate] the figure was 0.00501 µM; with `O=C(O)[C@H]1C[C@@H]1c1ccc(NCc2cccc(Oc3cccc(C(F)(F)F)c3)c2)cc1` [Example 33, (+)-(trans)-2-(4-{[(3-{[3-(trifluoromethyl)phenyl]oxy}phenyl)methyl]amino}phenyl)cyclopropanecarboxy lic Acid], 0.0251 µM.

The values are drawn from patent US7834013B2, “Aminophenylcyclopropyl carboxylic acids and derivatives as agonists to GPR40” (GlaxoSmithKline LLC, priority 2003, dated 2010).
